# According to patent US20250052751A1, “COMPOSITIONS AND METHODS FOR DIAGNOSING AUTOIMMUNE AQUAPORINOPATHY” (The Regents of the University of California, priority 2023, published 2025):
# “Also recorded” adds a separate entry of the source.
# How the values were obtained:
# [1] = system: draining lymph node cells; test: Proliferation assay, ^3H-thymidine incorporation after s.c. peptide immunization; type: cell-based, mouse
# Protocol: FIGS. 2A-2F. Pathogenic AQP4 determinants bind I-A^b with high affinity and elicit proliferation of AQP4: I-A^b-specific TCR-bearing T cells in AQP4-deficient mice. (FIG. 2A) WT or AQP4^−/− mice were immunized s.c. with peptides indicated. Peptide-specific proliferation of draining lymph node cells was measured by 3H-thymidine incorporation (mean±SEM, representative of five experiments). (FIG. 2B) Lymph node cells from AQP4 immunized WT or AQP4^−/− mice were cultured for 3 days with cognate antigen under Th17 polarizing conditions. AQP4 p133-149- and p202-218-specific Th17 cells from AQP4/donors induce paralysis in WT recipient mice. (FIG. 2C) IEDB, an in silico method for predicting determinants within proteins that bind MHC alleles, was used to identify AQP4 amino acid sequences anticipated to bind I-A^b for recognition by AQP4-specific/I-A^b-restricted CD4^+ T cells. 1/IC50 is plotted against the first amino acid for each overlapping AQP4 15 mer. Peaks correspond to increased predicted binding affinity. (FIG. 2D) Purified I-A^b molecules were tested biochemically for peptide binding affinity using a competitive binding assay between a radiolabeled high-affinity competitor peptide and unlabeled peptides (22). Lower IC50 values indicate higher binding affinity. Boxed amino acids designate the core binding regions. (FIGS. 2E-2F) Lymph node T cells isolated from WT or AQP4−/− mice immunized with AQP4 p133-149 or p202-218 were stained with I-A^b:p133-149 and […] tetramers, bead-enriched and analyzed by flow cytometry. […] Each data point represents one mouse. ****p<0.0001 (Mann Whitney U test).
# FIGS. 4A-4B. Negative selection of AQP4 p133-149-reactive T cells is bypassed partially in mice deficient in thymic AQP4 expression. (FIG. 4A) AQP4^−/− WT, Foxn1cre-AQP4^fl/fl, Aire^−/−, or Foxn1cre-Fezf2^fl/fl mice were immunized s.c. with peptides indicated. Peptide-specific proliferation of draining lymph node cells was measured by 3H-thymidine incorporation (mean±SEM, representative of five experiments). Comparisons within the five experiments for p133-149 at […]: WT vs. AQP4^−/− (p=0.008), WT vs. Foxn1cre-AQP4^fl/fl (p=0.008). (FIG. 4B) Ten days after peptide immunization, CD4^+ T cells from draining lymph nodes were analyzed for I-A^b: peptide tetramer binding by flow cytometry. Each data point represents the frequency (mean±SEM) of CD4^+ T cells bound to cognate antigen-tetramer in a single mouse. […] For p133-149: WT vs. Aire^−/− (p=0.9), WT vs. Foxn1cre-Fezf2^fl/fl (p=0.3). For p202-218: WT vs. Foxn1cre-AQP4^fl/fl (p=0.3), WT vs. Aire^−/− (p=0.06).
# Proliferation assays. Mice were immunized subcutaneously (s.c.) with 100 μg of AQP4, MOG or IRBP peptide in CFA containing 400 μg M. tuberculosis H37Ra (Difco Laboratories). Lymph nodes were harvested on day 10-12 and cultured at 2×10^5/well with various concentrations of peptide in triplicate wells for 72 hours. […] of ^3H-thymidine was added 18 hours prior to cell harvest, and data are presented as counts per minute (CPM). Stimulation Index (SI) was calculated by dividing CPM in wells with Ag by CPM in wells with no antigen controls of each assay test group.
# [2] = system: WT, RAG1^−/−, TCRa^−/− and JHT recipient mice; test: Adoptive transfer of Th17-polarized peptide-specific T cells, clinical and histologic CNS disease; type: in vivo, mouse
# Text: FIGS. 5A-5B. Pathogenic AQP4-specific Th17 cells induce sustained CNS autoimmune disease in T cell-deficient mice. (FIG. 5A) Th17-polarized AQP4 p133-149-specific T cells from AQP4−/− mice were transferred into WT, T cell- and B cell-deficient (T cell-/B cell-, RAG1^−/−), T cell-deficient (T cell-, TCRa^−/−) and B cell-deficient (B cell-, JHT) recipient mice then scored for clinical disease. Donor Th17-polarized MOG p35-55-specific T cells were transferred into WT recipient mice as a control. Results are representative of four experiments (n=5 per group). (FIG. 5B) Recipient mice were evaluated for histologic evidence of meningeal and CNS parenchymal inflammation (H&E). Results are representative of two experiments (2-4 mice/group/time-point/experiment).
# CNS autoimmune disease induction and analysis. For adoptive induction of CNS disease with primary lymphocytes, mice were immunized s.c. with 100 μg AQP4 or MOG peptides in CFA containing 400 μg M. tuberculosis H37Ra (Difco Laboratories). After 10-12 days, lymph node cells were cultured with 15 μg/ml antigen for 3 days with 20 ng/ml IL-23 and 10 ng/ml IL-6, under Th17 polarizing conditions. 2×10^7 cells were injected i.v. into naïve recipients, which then received 200 ng B. pertussis toxin (Ptx) (List Biological) i.p. on days 0 and 2. Clinical scores: 0=no disease, 1=tail tone loss, 2=impaired righting, 3=severe paraparesis or paraplegia, 4=quadraparesis, and 5=moribund or death.
# For induction of CNS disease by I-A^b:AQP4 tet-sorted cells targeted cells, primary lymph node cells from AQP4 or WT mice were restimulated with […] antigen and irradiated splenocytes every 10 days. Percent tetramer binding was monitored by flow cytometry. In preparation for adoptive transfer, cells were washed and cultured with 1:10 T cell-to-irradiated splenocytes under polarizing conditions for 3 days. CD4^+ cells were negatively sorted using magnetic beads (Miltenyi). 5×10^6 were transferred to TCRa^−/− recipients. 200 ng Ptx was given on days 0 and 2.
# Histopathology. Brain, spinal cord, optic nerve, kidney and muscle tissue samples were fixed in 10% neutral-buffered formalin, paraffin-embedded, sectioned and stained with H&E. Meningeal and parenchymal inflammatory lesions and areas of demyelination were assessed in a blinded manner as described (39).
# Foxn1cre-AQP4^fl/fl mice = test: CNS autoimmunity by direct peptide immunization; type: in vivo, mouse
# [3] = AQP4^−/− mice immunized with the peptide
# [4] = Aire^−/− mice immunized with the peptide
# [5] = Foxn1cre-AQP4^fl/fl mice immunized with the peptide
# [6] = WT mice immunized with the peptide
# [7] = donor Th17 cells from AQP4^−/− mice, recipient WT and JHT mice
Sequence,"peptide-specific proliferation of draining lymph node cells [1, 3]","peptide-specific proliferation of draining lymph node cells [1, 4]","peptide-specific proliferation of draining lymph node cells [1, 5]","peptide-specific proliferation of draining lymph node cells [1, 6]",clinical and histologic CNS disease after transfer of peptide-specific Th17 cells ([2]; WT recipient mice),CNS autoimmunity by immunization (Foxn1cre-AQP4^fl/fl mice),"peptide-specific proliferation of draining lymph node cells ([1]; AQP4^−/− mice immunized with the peptide, listed as p133-149)",peptide-specific proliferation of draining lymph node cells ([1]; Foxn1cre-Fezf2^fl/fl mice immunized with the peptide),CNS autoimmunity after transfer of tet^+-sorted T cells ([2]; I-A^b:AQP4 p133-149 tet^+-sorted T cells from immunized AQP4^−/− mice),"onset of paralysis after transfer [2, 7] [days]","time from onset to complete recovery [2, 7] [days]",clinical and histologic CNS disease after transfer of peptide-specific Th17 cells ([2]; recipient RAG1^−/− and TCRa^−/− mice),"CNS inflammation (H&E) ([2]; recipient WT and JHT mice, day 21)"
LFAINYTGASMNPARSF [AQP4 p202-218],robust proliferative responses; also recorded: strong proliferation,no significant responses,only marginal responses,no significant responses,capable of inducing paralysis and CNS inflammation in WT mice,,,,,,,,
LYLVTPPSVVGGLGVT [AQP4 p133-149],robust proliferative T cell responses,little or no proliferation,"induced proliferation in Foxn1cre-AQP4^fl/fl mice, but not to the same level as in AQP4^−/− mice",little or no proliferation,capable of inducing paralysis and CNS inflammation in WT mice,resistant to CNS autoimmunity,robust proliferative responses,little or no proliferation,transferred CNS autoimmunity to WT mice,~7,4 to 5,persistent paralysis and CNS inflammation,no longer evident after recovery
